Columns and labels:
Enterococcus faecalis = assay: Antibacterial activity against Enterococcus faecalis ATCC 29212 by radial diffusion assay; assay type: functional
[1] = test system: Mycobacterium tuberculosis; assay: Antituberculosis activity against Mycobacterium tuberculosis H37Rv assessed as parasite growth inhibition at 25 ug/ml after 4 days by microplate alamar blue assay; assay type: functional; conditions: 96 h, read-out: GI
[2] = Antiplatelet activity in rabbit platelets assessed as inhibition of PAF-induced platelet aggregation treated 5 mins before PAF challenge; assay type: functional, cell-based; conditions: Oryctolagus cuniculus
[3] = test system: Mycobacterium tuberculosis; assay: Antituberculosis activity against Mycobacterium tuberculosis H37Rv assessed as parasite growth inhibition at 100 ug/ml after 4 days by microplate alamar blue assay; assay type: functional; conditions: 96 h, read-out: GI
[4] = test system: Mycobacterium tuberculosis; assay: Antituberculosis activity against Mycobacterium tuberculosis H37Rv assessed as parasite growth inhibition at 50 ug/ml after 4 days by microplate alamar blue assay; assay type: functional; conditions: 96 h, read-out: GI
[5] = test system: Salmonella enterica subsp. enterica; assay: Antibacterial activity against Salmonella Typhimurium EG10627 by radial diffusion assay; assay type: functional, Salmonella enterica subsp. enterica serovar Typhimurium
Escherichia coli = assay: Antibacterial activity against Escherichia coli ATCC 25922 by radial diffusion assay; assay type: functional
[6] = test system: Salmonella enterica subsp. enterica; assay: Antibacterial activity against Salmonella Typhimurium ATCC 14028s by radial diffusion assay; assay type: functional, Salmonella enterica subsp. enterica serovar Typhimurium
Staphylococcus aureus = assay: Antibacterial activity against Staphylococcus aureus ATCC 65380 by radial diffusion assay; assay type: functional
[7] = test system: Salmonella enterica subsp. enterica; assay: Antibacterial activity against Salmonella Typhimurium MS 7953 by radial diffusion assay; assay type: functional, Salmonella enterica subsp. enterica serovar Typhimurium

Compound	growth inhibition (GI) (Enterococcus faecalis) [%]	inhibition of growth at 25 µg/mL [1] [%]	IC50 [2] [µM]	inhibition of growth at 100 µg/mL [3] [%]	inhibition of growth at 50 µg/mL [4] [%]	growth inhibition (GI) [5] [%]	growth inhibition (GI) (Escherichia coli) [%]	growth inhibition (GI) [6] [%]	growth inhibition (GI) (Staphylococcus aureus) [%]	growth inhibition (GI) [7] [%]
C=CCC1=C[C@]2(OC)C(=O)[C@@](OC)(C1=O)[C@H](c1cc(OC)c3c(c1)OCO3)[C@H]2C [CINERIN A]	<30	2.5	16.8	8.1	7.2	<30	<30	<30	<30	<30
C=CCC1=C[C@@]2(OC)[C@H](C)[C@@H](c3cc(OC)c4c(c3)OCO4)[C@H](C1=O)[C@@H]2O [CINERIN B]	<30	13.9	1.5	19.5	20.9	<30	<30	<30	<30	<30
C=CCC1=C[C@]2(OC)[C@H](C)[C@@H](c3cc(OC)c4c(c3)OCO4)[C@](OC)(C1=O)[C@H]2O [CINERIN C]	<30	43.8	1.1	49.4	49.8	<30	<30	<30	<30	<30
C=CCC1=C[C@@]2(OC)C(=O)[C@](OC)([C@H](c3cc(OC)c4c(c3)OCO4)[C@H]2C)[C@H]1O [CINERIN D]	<30	1.3	6.6	7.3	6.2	<30	<30	<30	<30	<30
C[C@@H]1C(=O)O[C@H]2[C@H](O)[C@@]34[C@H]5C[C@@H](C(C)(C)C)[C@]36[C@@H](OC(=O)[C@@H]6O)O[C@@]4(C(=O)O5)[C@@]12O [GINKOLIDE B]	–	–	0.93	–	–	–	–	–	–	–
NNC(=O)c1ccncc1 [ISONIAZID]	–	94.2	–	–	–	–	–	–	–	–
C=CCC1=C[C@@]2(OC)C(=CC1=O)O[C@H](c1ccc(OC)c(OC)c1)[C@H]2C [KADSURENONE]	–	–	0.12	–	–	–	–	–	–	–
C=C1C[C@@]23CC[C@H]4[C@@](C)(CCC[C@@]4(C)C(=O)O)[C@@H]2CC[C@@H]1C3 [KAURENOIC ACID]	<30	88.6	–	94.2	91.3	<30	<30	<30	<30	<30
CO[C@H]1/C=C/O[C@@]2(C)Oc3c(C)c(O)c4c(O)c(c(/C=N/N5CCN(C)CC5)c(O)c4c3C2=O)NC(=O)/C(C)=C\C=C\[C@H](C)[C@H](O)[C@@H](C)[C@@H](O)[C@@H](C)[C@H](OC(C)=O)[C@@H]1C [RIFAMPIN]	–	97.6	–	–	–	–	–	–	–	–
